Data reported in ChEMBL document CHEMBL6103671, “Novel Piperazine Derivatives as Selective Antagonists of GluN2B-Containing NMDARs under Acidic pH Conditions” (ACS Med Chem Lett, 2025).

Tested on: not listed separately
Assay: Antagonist activity at human GluN1-1a/[…] receptor expressed in Xenopus laevis oocytes assessed as inhibition of glutamate/glycine-induced current at pH 7.6 with -40 mV holding potential by two-electrode voltage-clamp method
Assay type: cell-based
Details: Oocyte

Row | SMILES | IC50 [nM]
1 | NC(=O)Nc1ccc(OC[C@H](O)CN2CCN(c3ccc(Cl)cc3)CC2)cc1 | 60
2 | NC(=O)Nc1ccc(OC[C@@H](O)CN2CCN(c3ccc(Cl)c(Cl)c3)CC2)cc1 | 947
3 | NC(=O)Nc1ccc(OC[C@H](O)CN2CCN(c3ccc(Cl)c(Cl)c3)CC2)cc1 | 132
4 | NC(=O)Nc1ccc(OC[C@@H](O)CN2CCN(c3ccc(Cl)cc3)CC2)cc1 | 452

Results, then the compound that gave them:

Row | IC50 [nM] | SMILES
5 | 142 | O=C1CCc2cc(OC[C@H](O)CN3CCN(c4ccc(C(F)(F)F)cc4)CC3)ccc2N1 [NP-10679]
6 | 717 | O=C1CCc2cc(OC[C@@H](O)CN3CCN(c4ccc(C(F)(F)F)cc4)CC3)ccc2N1

Tested on: Oocyte
Assay: Selectivity ratio of IC50 for antagonist activity at human GluN1-1a/GluN2A receptor expressed in Xenopus laevis oocytes at pH 7.6 to antagonist activity at human GluN1-1a/GluN2A receptor expressed in Xenopus laevis oocytes at pH 6.9
Assay type: cell-based
Details: not given

Row | SMILES | Ratio IC50
7 | NC(=O)Nc1ccc(OC[C@H](O)CN2CCN(c3ccc(Cl)cc3)CC2)cc1 | 3.2
8 | NC(=O)Nc1ccc(OC[C@@H](O)CN2CCN(c3ccc(Cl)c(Cl)c3)CC2)cc1 | 9.2
9 | NC(=O)Nc1ccc(OC[C@H](O)CN2CCN(c3ccc(Cl)c(Cl)c3)CC2)cc1 | 4.4
10 | NC(=O)Nc1ccc(OC[C@@H](O)CN2CCN(c3ccc(Cl)cc3)CC2)cc1 | 9.8

Continued, values first:

Row | Ratio IC50 | SMILES
11 | 6.2 | O=C1CCc2cc(OC[C@H](O)CN3CCN(c4ccc(C(F)(F)F)cc4)CC3)ccc2N1 [NP-10679]
12 | 6.5 | O=C1CCc2cc(OC[C@@H](O)CN3CCN(c4ccc(C(F)(F)F)cc4)CC3)ccc2N1

Tested on: not listed separately
Assay: Antagonist activity at human GluN1-1a/[…] receptor expressed in Xenopus laevis oocytes assessed as inhibition of glutamate/glycine-induced current at pH 6.9 with -40 mV holding potential by two-electrode voltage-clamp method
Assay type: cell-based
Details: Oocyte

Row | SMILES | IC50 [nM]
13 | NC(=O)Nc1ccc(OC[C@H](O)CN2CCN(c3ccc(Cl)cc3)CC2)cc1 | 19
14 | NC(=O)Nc1ccc(OC[C@@H](O)CN2CCN(c3ccc(Cl)c(Cl)c3)CC2)cc1 | 103
15 | NC(=O)Nc1ccc(OC[C@H](O)CN2CCN(c3ccc(Cl)c(Cl)c3)CC2)cc1 | 30
16 | NC(=O)Nc1ccc(OC[C@@H](O)CN2CCN(c3ccc(Cl)cc3)CC2)cc1 | 46

The remaining lines, values ahead:

Row | IC50 [nM] | SMILES
17 | 23 | O=C1CCc2cc(OC[C@H](O)CN3CCN(c4ccc(C(F)(F)F)cc4)CC3)ccc2N1 [NP-10679]
18 | 111 | O=C1CCc2cc(OC[C@@H](O)CN3CCN(c4ccc(C(F)(F)F)cc4)CC3)ccc2N1
